“And” between values parts separate entries of the source, which are not always exact repeats. Identical values can stand only once. Marks after values point to notes of the source that are not given here. Oligonucleotides are written 5' to 3', each unit as a sugar letter and its base; * is a phosphorothioate linkage, no mark a phosphodiester; rarer units and linkages stand in square brackets, end groups in braces. Plain capitals give the bases only. e = 2'-O-(2-methoxyethyl) (MOE); [5mC] = 5-methylcytosine; d = 2'-deoxy (DNA)
Test system: RPMI 8226 (human myeloma) xenograft
Assay: In vivo activity of custirsen with Velcade, RPMI 8226 xenograft (Example 14)
Conditions: for % of baseline / Δ %: weight
Description: The cells were implanted subcutaneously into female SCID mice with 7×10^6 cells inoculum.
Tumors and body weights were measured weekly until termination of the study on day 71. Response to treatment was evaluated for tumor growth inhibition (TGI) and tumor growth delay (TGD).
70 CB.17 SCID female mice, 4-6 weeks old, 16-20 grams, obtained from Harlan animal breeding center.
Sample from the cell suspension was taken for counting (0.3 ml in duplicates for CEDEX) before spun down. Cell viability was 85.6% and live cell concentration was 167×10^5 cells/ml. The pellet was resuspended in HBSS to a final volume of 8 ml.
Tumors were implanted subcutaneously with RPMI-8226 cells into the right flank of the mouse on Day 0. Each animal received a s.c. injection 7×10^6 cells in 0.1 ml suspension. On day 20, mice were sorted by the optimal tumor volume ([…]) and were allocated into 5 groups of 10 mice. Mice were individually tagged and their tumor volume and body weight were monitored weekly during the study. Tumor size was measured by caliper and calculated using the formula: […]
The treatment started on […] (0.2 ml per 20 grams v/w) and continued till day 52, after which the remaining mice were left for observation until day 71.

[1] = Custirsen 40 mg/kg ip qd*5, twk, day 51
[2] = OGX 40 ip qd*5, twk, Day 48, group mean
[3] = OGX 40 ip qd*5, twk, Day 48, individual mice, listed as OGX
[4] = OGX 40 ip qd*5, twk, Day 51, group mean
[5] = OGX 40 ip qd*5, twk, Day 51, individual mice, listed as OGX
[6] = OGX 40 ip qd*5, twk, Day 58, individual mice, listed as OGX
[7] = OGX 40 ip qd*5, twk, Day 63, individual mice, listed as OGX
[8] = OGX 40 ip qd*5, twk, earlier day (day not given), group mean
[9] = OGX 40 ip qd*5, twk, earlier day (day not given), group mean, tumor
[10] = OGX 40 ip qd*5, twk, earlier day (day not given), individual mouse, listed as OGX
[11] = OGX 40 ip qd*5, twk, earlier day (day not given), individual mouse, tumor, listed as OGX
[12] = OGX 40 ip qd*5, twk, group Mean, n 9
[13] = OGX 40 ip qd*5, twk, group Mean, n 9, vs Day 20
[14] = OGX 40 ip qd*5, twk, group Mean, n 10

Custirsen: anti-clusterin antisense oligonucleotide CAGCAGCAGAGTCTTCATCAT, phosphorothioate backbone, 2′-O-methoxyethyl at nucleotides 1-4 and 18-21, 5-methylcytosines at 1, 4, 19 (antisense e[5mC]*eA*eG*e[5mC]*dA*dG*dC*dA*dG*dA*dG*dT*dC*dT*dT*dC*dA*eT*e[5mC]*eA*eT; listed as Homo sapiens)
Max BW (mean) reduction (Custirsen 40 mg/kg ip qd*5, twk, day 34): −4.7% | % TGI day 51 [1]: 46* % | No. of CR [1]: 0 | No. of PR [1]: 0 | No. of TRD [1]: 1 | No. og nTRD [1]: 0 | Δ mean tumor volume, (mean ± se) [1]: 667 ± 87 | % TGI day 51 (Custirsen 40 mg/kg ip qd*5, twk, day 51, listed as Custersin): 46% | volume [2]: 649.2 | weight [2]: 19.8 | Δ % (weight) [2]: 5.3% | Δ volume [2]: 503.8 | Δ weight [2]: 1.0 | % of baseline (weight) [3]: 105.6% and 110.6% and 103.7% and 103.8% and 102.1% and 113.0% and 103.2% and 101.2% | volume [3]: 495 and 354 and 689 and 763 and 717 and 1076 and 483 and 593 and 671 | weight [3]: 18.73 and 18.93 and 21.36 and 20.43 and 19.03 and 20.83 and 20.79 and 18.98 and 19.13 | Δ % (weight) [3]: 5.6% and 10.6% and 3.7% and 3.8% and 2.1% and 13.0% and 4.2% and 3.2% and 1.2% | Δ volume [3]: 371.9 and 229.1 and 550.6 and 621.8 and 571.9 and 925.7 and 329.0 and 431.2 and 502.7 | Δ weight [3]: 1.0 and 1.8 and 0.8 (3×) and 0.4 and 2.4 and 0.6 and 0.2 | volume [4]: 812.8 | weight [4]: 19.8 | Δ % (weight) [4]: 5.3% | Δ volume [4]: 667.3 | Δ weight [4]: 1.0 | % of baseline (weight) [5]: 103.8% and 109.8% and 102.5% and 102.7% and 114.2% and 100.4% | volume [5]: 687 and 392 and 817 and 923 and 1031 and 1324 and 603 and 734 and 804 | weight [5]: 18.40 and 18.79 and 21.71 and 20.17 and 19.13 and 21.06 and 20.78 and 18.47 and 19.87 | Δ % (weight) [5]: 3.8% and 9.8% and 5.4% and 2.5% and 2.7% and 14.2% and 4.2% and 0.4% and 5.1% | Δ volume [5]: 563.6 and 267.5 and 678.0 and 781.6 and 885.6 and 1173.4 and 448.7 and 571.8 and 635.5 | Δ weight [5]: 0.7 and 1.7 and 1.1 and 0.5 (2×) and 2.6 and 0.8 and 0.1 and 1.0 | % of baseline (weight) [6]: 105.6% and 110.0% and 108.4% | volume [6]: 797 and 560 and 1319 | weight [6]: 18.72 and 18.84 and 22.31 | Δ % (weight) [6]: 5.6% and 10.0% and 8.4% | Δ volume [6]: 673.0 and 435.6 and 1180.5 | Δ weight [6]: 1.0 and 1.7 (2×) | % of baseline (weight) [7]: 112.4% and 108.7% | volume [7]: 1127 and 848 and 2000 | weight [7]: 18.57 and 19.25 and 22.39 | Δ % (weight) [7]: 4.7% and 12.4% and 8.7% | Δ volume [7]: 1003.4 and 723.2 and 1861.0 | Δ weight [7]: 0.8 and 2.1 and 1.8 | weight [8]: 20.3 | Δ weight [8]: 1.5 | volume [9]: 1278.9 | Δ volume [9]: 1133.5 | % of baseline [8]: 108.0% | Δ % [8]: 8.0% | weight [10]: 20.77 and 19.53 and 21.42 and 21.45 and 19.51 and 20.43 | Δ weight [10]: 1.1 (2×) and 0.9 and 3.0 and 1.5 (2×) | volume [11]: 1418 and 1693 and 1970 and 1060 and 1218 and 1475 | Δ volume [11]: 1277.2 and 1547.4 and 1819.3 and 905.2 and 1056.5 and 1306.4 | % of baseline [10]: 116.2% and 107.5% and 108.1% | Δ % [10]: 5.5% and 4.8% and 16.2% and 7.5% and 6.0% and 8.1% | Day 41 % of baseline (weight) [12]: 101.5% | Day 41 volume [12]: 395.4 | Day 41 weight [12]: 19.1 | Day 45 volume [12]: 527.3 | Day 45 weight [12]: 19.9 | Day 41 Δ % (weight) [13]: 1.5% | Day 41 Δ volume [13]: 249.9 | Day 41 Δ weight [13]: 0.3 | Day 45 Δ % (weight) [13]: 5.6% | Day 45 Δ volume [13]: 381.9 | Day 45 Δ weight [13]: 1.0 | Day 20 volume [14]: 142.8 | Day 20 weight [14]: 18.5

— patent US9364496B2 (ONCOGENEX TECHNOLOGIES INC., priority 2013, dated 2016)
